Values quoted from earlier work as cited in PMC7904743, “WIDOCK: a reactive docking protocol for virtual screening of covalent inhibitors” (Journal of Computer-Aided Molecular Design, 2021).
Where two headings read alike, the source gives them in different places.

Assays:
[1] = thiol reactivity, cited from earlier work
OTUB2 = details: experimental actives if % labeling higher than 50%, cited from earlier work
NUDT7 = details: protein labeling at 200 μM; experimental actives if % labeling higher than 50%; cited from earlier work
[2] = natural log of average kinetic rate constant
[3] = natural log of average rate constant
[4] = natural log of average rate constant k
[5] = natural logarithm of average rate constant

## O=C(CCl)Nc1cc(Cl)ccc1F [PCM-0102762, O=C(CCl)Nc1cc(Cl)ccc1F]
[1]; [2]
  ln(avg k): -15.818
[1]; [3]
  ln(avg k): -15.818
OTUB2; OTUB2 protein labeling
  OTUB2 % labeling: 13%
NUDT7
  NUDT7 % labeling: 0%

## O=C(CCl)NCc1cccs1 [PCM-0102280, O=C(CCl)NCc1cccs1]
[1]; [4]
  ln(avg k): -16.889
[1]; [5]
  ln(avg k): -16.889
OTUB2
  OTUB2 % labeling: 22%
NUDT7
  NUDT7 % labeling: 0%

## Cc1ccc(C)c(-n2nc(C)cc2NC(=O)CCl)c1 [PCM-0102249, Cc1ccc(C)c(-n2nc(C)cc2NC(=O)CCl)c1]
[1]; [4]
  ln(avg k): -15.689
[1]; [5]
  ln(avg k): -15.689
OTUB2
  OTUB2 % labeling: 43%
NUDT7
  NUDT7 % labeling: 0%

## O=C(CCl)Nc1cc([N+](=O)[O-])ccc1F [PCM-0102544, O=C(CCl)Nc1cc([N+](=O)[O-])ccc1F]
[1]; [4]
  ln(avg k): -15.793
[1]; [5]
  ln(avg k): -15.793
OTUB2
  OTUB2 % labeling: 31%
NUDT7
  NUDT7 % labeling: 0%

## O=C(CCl)NC(=O)OCc1ccccc1 [PCM-0102153, O=C(CCl)NC(=O)OCc1ccccc1]
[1]; [4]
  ln(avg k): -16.245
[1]; [5]
  ln(avg k): -16.245
OTUB2
  OTUB2 % labeling: 79%
NUDT7
  NUDT7 % labeling: 0%

## N#CC(c1cccs1)N1CCN(C(=O)CCl)CC1 (stereo not shown) [PCM-0102223, N#CC(c1cccs1)N1CCN(C(=O)CCl)CC1]
[1]; [4]
  ln(avg k): -15.143
[1]; [5]
  ln(avg k): -15.143
OTUB2
  OTUB2 % labeling: 0%
NUDT7
  NUDT7 % labeling: 0%

## O=C(CCl)NC1CCS(=O)(=O)C1 (stereo not shown) [PCM-0102138, O=C(CCl)NC1CCS(=O)(=O)C1]
[1]; [4]
  ln(avg k): -15.936
[1]; [5]
  ln(avg k): -15.936
OTUB2
  OTUB2 % labeling: 0%
NUDT7
  NUDT7 % labeling: 0%

## CCOC(=O)C1CCN(C(=O)CCl)CC1 [PCM-0102656, CCOC(=O)C1CCN(C(=O)CCl)CC1]
[1]; [4]
  ln(avg k): -15.523
[1]; [5]
  ln(avg k): -15.523
OTUB2
  OTUB2 % labeling: 0%
NUDT7
  NUDT7 % labeling: 0%

## O=C(CCl)NCc1cc(F)cc(F)c1 [PCM-0102790, O=C(CCl)NCc1cc(F)cc(F)c1]
[1]; [2]
  ln(avg k): -16.548
[1]; [3]
  ln(avg k): -16.548
OTUB2; OTUB2 protein labeling
  OTUB2 % labeling: 0%
NUDT7
  NUDT7 % labeling: 0%

## O=C(CCl)Nc1cccc(C(=O)O)c1 [PCM-0102696, O=C(CCl)Nc1cccc(C(=O)O)c1]
[1]; [4]
  ln(avg k): -16.586
[1]; [5]
  ln(avg k): -16.586
OTUB2
  OTUB2 % labeling: 11%
NUDT7
  NUDT7 % labeling: 0%

## O=C(CCl)N1CCN(c2ccc(Cl)cc2[N+](=O)[O-])CC1 [PCM-0102125, O=C(CCl)N1CCN(c2ccc(Cl)cc2[N+](=O)[O-])CC1]
[1]; [4]
  ln(avg k): -15.501
[1]; [5]
  ln(avg k): -15.501
OTUB2
  OTUB2 % labeling: 0%
NUDT7
  NUDT7 % labeling: 29%

## O=C(CCl)N1CCN(CC(=O)N2CCOCC2)CC1 [PCM-0102133, O=C(CCl)N1CCN(CC(=O)N2CCOCC2)CC1]
[1]; [4]
  ln(avg k): -15.992
[1]; [5]
  ln(avg k): -15.992
OTUB2
  OTUB2 % labeling: 15%
NUDT7
  NUDT7 % labeling: 0%

## CS(=O)(=O)c1ccc(F)c(NC(=O)CCl)c1 [PCM-0103018, CS(=O)(=O)c1ccc(F)c(NC(=O)CCl)c1]
[1]; [2]
  ln(avg k): -15.950
[1]; [3]
  ln(avg k): -15.950
OTUB2; OTUB2 protein labeling
  OTUB2 % labeling: 16%
NUDT7
  NUDT7 % labeling: 0%

## O=C(CCl)NC1C2CC3CC(C2)CC1C3 (stereo not shown) [PCM-0102404, O=C(CCl)NC1C2CC3CC(C2)CC1C3]
[1]; [4]
  ln(avg k): -16.228
[1]; [5]
  ln(avg k): -16.228
OTUB2
  OTUB2 % labeling: 33%
NUDT7
  NUDT7 % labeling: 0%

## O=C(CCl)N1CCCC1c1ccc2c(c1)OCCCO2 (stereo not shown) [PCM-0102512, O=C(CCl)N1CCCC1c1ccc2c(c1)OCCCO2]
[1]; [4]
  ln(avg k): -15.497
[1]; [5]
  ln(avg k): -15.497
OTUB2
  OTUB2 % labeling: 0%
NUDT7
  NUDT7 % labeling: 88%

## Cc1ccccc1CNC(=O)CCl [PCM-0102253, Cc1ccccc1CNC(=O)CCl]
[1]; [4]
  ln(avg k): -16.467
NUDT7
  NUDT7 % labeling: 0%

## O=C(CCl)Nc1ccc2[nH]c(C(F)(F)F)nc2c1 [PCM-0102151, O=C(CCl)Nc1ccc2[nH]c(C(F)(F)F)nc2c1]
[1]; [4]
  ln(avg k): -15.575
NUDT7
  NUDT7 % labeling: 7%

## O=C(CCl)NC1CCCCCCC1 [PCM-0102318, O=C(CCl)NC1CCCCCCC1]
[1]; [4]
  ln(avg k): -16.468
NUDT7
  NUDT7 % labeling: 0%

## O=C(CCl)N1CCc2[nH]c3ccccc3c2C1 [PCM-0102591, O=C(CCl)N1CCc2[nH]c3ccccc3c2C1]
[1]; [4]
  ln(avg k): -14.023
NUDT7
  NUDT7 % labeling: 22%

## Cc1ccc(NC(=O)CCl)c(C)c1 [PCM-0103041, Cc1ccc(NC(=O)CCl)c(C)c1]
[1]; [3]
  ln(avg k): -16.644
NUDT7
  NUDT7 % labeling: 0%

## CN(Cc1cccc(Cl)c1)C(=O)CCl [PCM-0102976, CN(Cc1cccc(Cl)c1)C(=O)CCl]
[1]; [2]
  ln(avg k): -16.166
OTUB2; OTUB2 protein labeling
  OTUB2 % labeling: 0%

## C=CC(=O)Nc1nc(-c2ccc(O)cc2)cs1 [PCM-0102884, C=CC(=O)Nc1nc(-c2ccc(O)cc2)cs1]
[1]; [2]
  ln(avg k): -17.011
OTUB2; OTUB2 protein labeling
  OTUB2 % labeling: 0%

## CC1CCC(N(C(=O)CCl)C2CC2)CC1 (stereo not shown) [PCM-0102792, CC1CCC(N(C(=O)CCl)C2CC2)CC1]
[1]; [3]
  ln(avg k): -16.001
NUDT7
  NUDT7 % labeling: 13%

## Cc1ccc(CN2CCCN(C(=O)CCl)CC2)cc1 [PCM-0103056, Cc1ccc(CN2CCCN(C(=O)CCl)CC2)cc1]
OTUB2; OTUB2 protein labeling
  OTUB2 % labeling: 0%
NUDT7
  NUDT7 % labeling: 0%

## O=C(CCl)N(C1CC1)C1CCCc2ccccc21 (stereo not shown) [PCM-0102774, O=C(CCl)N(C1CC1)C1CCCc2ccccc21]
[1]; [2]
  ln(avg k): -16.197
OTUB2; OTUB2 protein labeling
  OTUB2 % labeling: 0%

## Cc1nc(NC(=O)CCl)sc1C [PCM-0102124, Cc1nc(NC(=O)CCl)sc1C]
[1]; [5]
  ln(avg k): -15.463
OTUB2
  OTUB2 % labeling: 0%
